Test results from paper PMC6131501, “Urate transporter inhibitor lesinurad is a selective peroxisome proliferator-activated receptor gamma modulator (sPPARγM) in vitro” (Scientific Reports, 2018).
Read-outs that look alike come from different tables or passages of the source.

Legend:
PPARγ LBD / SRC-1 = PPARγ LBD / SRC-1 (Homo sapiens, UniProt P37231); test: PPARγ coactivator recruitment assay (time-resolved FRET), SRC-1; type: biochemical
Description: (§1) We analyzed the ability of lesinurad to induce recruitment of the coactivators steroid receptor coactivator 1 (SRC-1, also known as nuclear receptor coactivator 1 (NCOA1)) and cyclic AMP responsive element binding (CREB) protein (CBP) to the PPARγ ligand binding domain in a time-resolved FRET assay with labeled PPARγ-LBD and coactivator proteins (Fig. 5D).
(§2) Recruitment of coactivator-derived peptides to the PPARγ LBD was studied by homogeneous time-resolved fluorescence resonance energy transfer (HT-FRET or HTRF). Terbium cryptate as streptavidin conjugate (cisbio assays, France) was used as FRET donor. Peptides derived from coactivators SRC-1 [biotin-[…]] or CBP [biotin-[…]] encompassing the coactivator consensus motif LxxLL and N-terminal biotin for stable coupling to streptavidin were purchased (Eurogentec GmbH, Germany). […] FI520 nm was divided by FI620 nm and multiplied with 10,000 giving a dimensionless HTRF signal. Coactivator recruitment by the PPARγ LBD brings FRET donor and acceptor into close proximity resulting in a gain in FRET signal as signal for binding.

CYP3A4 = tested on: CYP3A4; design: method as in PMID 28067999; settings: cited from earlier work
[1] = Control reporter experiment in absence of a hybrid receptor; type: cell-based; settings: 30 μM, w/o hybrid receptor
Description: These in vitro test systems are based on a constitutively expressed hybrid receptor composed of the ligand binding domain of the respective human nuclear receptor and the DNA binding domain of the yeast receptor Gal4. A Gal4-inducible firefly luciferase serves as reporter gene and a constitutively expressed renilla luciferase is used for normalization of transfection efficacy and internal toxicity control[18],[19].

[2] = cited from earlier work; for peak plasma levels: oral dose of 200 mg
full-length PPARγ = target: T1, full-length PPARγ (Homo sapiens, UniProt P37231); test: Full-length PPARγ reporter gene assay; type: cell-based
T1 construct: host or cells: HEK293T
T1 sequence (P37231 whole entry): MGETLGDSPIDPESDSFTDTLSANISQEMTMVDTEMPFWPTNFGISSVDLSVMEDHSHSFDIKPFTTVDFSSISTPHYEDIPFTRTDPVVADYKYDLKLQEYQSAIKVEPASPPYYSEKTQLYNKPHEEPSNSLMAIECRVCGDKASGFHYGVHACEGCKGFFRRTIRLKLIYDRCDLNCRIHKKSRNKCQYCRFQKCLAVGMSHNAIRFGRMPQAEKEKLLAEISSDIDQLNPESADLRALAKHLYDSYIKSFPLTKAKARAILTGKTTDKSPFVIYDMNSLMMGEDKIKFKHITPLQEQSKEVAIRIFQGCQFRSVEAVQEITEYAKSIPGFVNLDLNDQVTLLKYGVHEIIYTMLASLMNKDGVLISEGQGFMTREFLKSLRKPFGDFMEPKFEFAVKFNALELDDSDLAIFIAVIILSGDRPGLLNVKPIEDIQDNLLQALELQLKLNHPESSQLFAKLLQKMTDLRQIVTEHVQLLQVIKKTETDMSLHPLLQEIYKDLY
Description: HEK293T cells were grown in DMEM high glucose, supplemented with 10% FCS, sodium pyruvate (1 mM), penicillin (100 U/mL) and streptomycin (100 μg/mL) at 37 °C and 5% CO2. The day before transfection, HEK293T cells were seeded in 96-well plates (3·10^4 cells/well). Before transfection, medium was changed to Opti-MEM without supplements. […] 5 h after transfection, medium was changed to Opti-MEM supplemented with penicillin (100 U/mL), streptomycin (100 μg/mL), now additionally containing 0.1% DMSO and the respective test compound or 0.1% DMSO alone as untreated control. Each concentration was tested in duplicates and each experiment was repeated independently at least three times. Following overnight (12-14 h) incubation with the test compounds, cells were assayed for luciferase activity using Dual-Glo™ Luciferase Assay System (Promega) according to the manufacturer’s protocol. Luminescence was measured with an Infinite M200 luminometer (Tecan Deutschland GmbH). […] Fold activation was obtained by dividing the mean RLU of a test compound at a respective concentration by the mean RLU of untreated control.

[3] = design: method as in PMID 27716403, PMID 26951201; settings: cited from earlier work
[4] = tested on: urate transporter 1 (URAT1); design: method as in PMID 27716403; settings: cited from earlier work
[5] = target: pregnane X receptor (PXR) (Homo sapiens, UniProt O75469); test: Gal4 hybrid reporter gene assay PXR
pregnane X receptor (PXR), sequence (O75469 146-433 limits assumed): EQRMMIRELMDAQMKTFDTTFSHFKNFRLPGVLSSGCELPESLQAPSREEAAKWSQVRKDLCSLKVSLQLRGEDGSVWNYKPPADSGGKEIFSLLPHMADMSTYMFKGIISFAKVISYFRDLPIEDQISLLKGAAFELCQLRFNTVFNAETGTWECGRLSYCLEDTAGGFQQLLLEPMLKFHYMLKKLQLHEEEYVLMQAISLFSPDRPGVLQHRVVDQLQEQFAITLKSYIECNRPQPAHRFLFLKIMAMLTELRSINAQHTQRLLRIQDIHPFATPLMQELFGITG
Description: These in vitro test systems are based on a constitutively expressed hybrid receptor composed of the ligand binding domain of the respective human nuclear receptor and the DNA binding domain of the yeast receptor Gal4. A Gal4-inducible firefly luciferase serves as reporter gene and a constitutively expressed renilla luciferase is used for normalization of transfection efficacy and internal toxicity control[18],[19]. […] The Gal4-fusion receptor plasmids pFA-CMV-hPPARα-LBD[50], pFA-CMV-hPPARγ-LBD[50], pFA-CMV-hPPARδ-LBD[50], pFA-CMV-hLXRα-LBD[51], pFA-CMV-hLXRβ-LBD[51], pFA-CMV-hRXRα-LBD[52], pFA-CMV-hRXRβ-LBD[52], pFA-CMV-hRXRγ-LBD[52], pFA-CMV-hRARα-LBD[52], pFA-CMV-hRARβ-LBD[52], pFA-CMV-hRARγ-LBD[52], pFA-CMV-hFXR-LBD[53], pFA-CMV-hVDR-LBD[52], pFA-CMV-hCAR-LBD[52] and pFA-CMV-hPXR-LBD[52] coding for the hinge region and ligand binding domain (LBD) of the canonical isoform of the respective nuclear receptor have been reported previously. pFR-Luc (Stratagene) was used as reporter plasmid and pRL-SV40 (Promega) for normalization of transfection efficiency and cell growth.
HEK293T cells were grown in DMEM high glucose, supplemented with 10% FCS, sodium pyruvate (1 mM), penicillin (100 U/mL) and streptomycin (100 μg/mL) at 37 °C and 5% CO2. […] Luminescence was measured with an Infinite M200 luminometer (Tecan Deutschland GmbH). […]

PPARγ LBD / CBP = PPARγ LBD / CBP (Homo sapiens, UniProt P37231); test: PPARγ coactivator recruitment assay (time-resolved FRET), CBP; type: biochemical
PPARγ LBD / CBP, sequence (P37231 238-503 limits assumed): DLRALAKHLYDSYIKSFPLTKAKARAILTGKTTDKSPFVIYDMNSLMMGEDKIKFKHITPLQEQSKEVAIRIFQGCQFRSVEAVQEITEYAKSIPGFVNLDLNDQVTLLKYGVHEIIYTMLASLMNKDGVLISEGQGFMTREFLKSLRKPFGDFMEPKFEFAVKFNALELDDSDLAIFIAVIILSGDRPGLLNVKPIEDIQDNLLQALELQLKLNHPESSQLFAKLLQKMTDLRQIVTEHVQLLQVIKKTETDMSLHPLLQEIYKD
PPARγ LBD / CBP, sequence (Q92793 58-80 partner limits assumed): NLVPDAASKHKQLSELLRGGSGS
Description: as §1, §2

PPARγ LBD / SRC-1, sequence (P37231 238-503 limits assumed): as the sequence (P37231 238-503 limits assumed) above
PPARγ LBD / SRC-1, sequence (Q15788 676-700 partner limits assumed): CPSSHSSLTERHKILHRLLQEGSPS

Question: Which results are given for `O=C(O)CSc1nnc(Br)n1-c1ccc(C2CC2)c2ccccc12` [lesinurad]?
Answer: EC50 (PPARγ LBD / SRC-1; HTRF, PPARγ LBD, 2 h at RT): 12 ± 2 µM; SRC-1 recruitment efficacy (PPARγ LBD / SRC-1; compared to 1 μM rosiglitazone): 91 ± 5%; CYP3A4 induction (CYP3A4): CYP3A4 inducer; reporter transactivation in absence of a hybrid receptor [1]: no reporter transactivation; free concentration ([2]; free plasma concentration after protein binding): 300 to 600 nM; peak plasma levels ([2]; ref 40): 15 µM; peak plasma levels ([2]; ref 41): 17 µM; mean peak plasma levels ([2]; single 600 mg oral dose, healthy men): 22 µg/mL; transactivation efficacy on full-length PPARγ (full-length PPARγ; compared to reference agonists): higher transactivation efficacy than pioglitazone and rosiglitazone; EC50 (full-length PPARγ; full-length human PPARγ, HEK293T, mean ± SEM): 21 ± 2 µM; plasma protein binding [3]: 98%; IC50 [4]: 3.5 µM; EC50 [5]: 19 ± 1 µM; PXR transactivation efficacy ([5]; vs. 1 µM SR12813): 145 ± 9%; EC50 (PPARγ LBD / CBP; HTRF, PPARγ LBD, 2 h at RT): 44 ± 8 µM; CBP recruitment efficacy (PPARγ LBD / CBP; compared to 1 μM rosiglitazone): 59 ± 4%
